Experimental data published in article PMC5974751, “NKp44-Derived Peptide Binds Proliferating Cell Nuclear Antigen and Mediates Tumor Cell Death” (Frontiers in Immunology, 2018).

What was measured:
[1] = system: recombinant human PCNA (hPCNA); experiment: ELISA binding of biotinylated NKp44-derived peptides to plate-bound recombinant PCNA; details: biotinylated peptide, 0–7.24 µM (Figure 1A), streptavidin-HRP, TMB, O.D. 650 nm
Experimental: The pET-28 or pMAL-c2x vectors were used to produce soluble human PCNA (hPCNA) in Rosetta™ 2 (DE3) cells. Plasmids containing the mRNA sequence of PCNA or TL1A, APO-E3, HNF4 were transformed into Rosetta™ 2 cells via heat shock and grown on LB agar plates with kanamycin and chloramphenicol. A fresh colony of transformed bacteria was grown overnight in a 5 ml of LB with kanamycin and chloramphenicol an incubator shaker set to 37°C and at 250 rpm. The next day, bacteria cells were diluted 1:100 into a 500 ml of LB with kanamycin and chloramphenicol (to discard dead cells) and grown to an optical density (O.D.) of 0.6–0.8 (λ = 650 nm). Isopropyl β-D-1-thiogalactopyranoside (0.5 mM) was added for the induction of the PCNA production, and cells were further incubated for 4 h at 26°C (hPCNA). Cells were then centrifuged and the pellet was resuspended with solution A (20 mM Tris–HCl pH 8.0, 0.5 M NaCl, 20 mM imidazole), sonicated six times (20 s with 40 s intervals) and sieved through […] (Sartorius Stedim Biotech) filter before loaded on a His-tag or Amylose resin beads. Purification of His-tagged proteins was done using a Gravity-flow Column with “HisPur™ Ni-NTA Resin” Bead kit (Thermo-Scientific) (binding capacity ≤ 60 mg of a 28 kDa 6xHis-tagged protein from a bacterial source per milliliter of settled resin) according to Kits Protocol. Purification of MBP-tagged proteins was done using the Amylose resin beads (Catalog # E8035S).
To determine the interaction between NKp44-derived peptides and PCNA, ELISA plates were coated overnight at 4°C with 2 µg/ml of the recombinant PCNA or TLA1 ([49]), APO-E3 ([50]), HNF4 ([4]), rhFc, rhNKp44-hFc ([12]), rhNKp46-hFc ([51]), and PBS 1× (negative controls). Blocking buffer (PBS + 2.5% skim milk) was applied for 2 h at room temperature, after that the plates were incubated with 0–8 µM of biotinylated NKp44-derived peptides or PBS 1× (background control) for 2 h at room temperature. NKp44-derived peptides binding to PCNA was detected using horseradish peroxidase (HRP)-conjugated to streptavidin (1 h at 1:500 dilution). Following washing, TMB (DAKO, S1599) was added. O.D. was read at 650 nm (Thermo Electron Corporation Multiskan Spectrum). Between each step, wells were washed three times with PBS containing 0.05% Tween 20 (PBST).

[2] = system: NK92-44-1 cells (NK92 overexpressing NKp44-1 splice variant); experiment: IFNγ secretion assay of NK92-44-1 cells co-incubated with PANC-1 cells; format: cell-based, human; details: NK92-44-1 with HLA-I positive PANC-1, E:T 1:2; peptide 10 or 20 µg/well
Experimental: IFNγ secretion assay and ELISA assay were done as previously described ([11], [12]). NKp44-pep8, pep9, and pep10 (10 or 20 µg) were added to the IFNγ secretion assay.
Figure 1 Recognition of recombinant human PCNA (hPCNA) by NKp44-derived pep8 (NKp44-pep8). (A) ELISA assay representing the binding curve of biotinylated NKp44-derived pep5, pep8, and pep10 at a peptide concentration range of 0–7.24 µM to plate bond hPCNA. (B) IFNγ secretion assay of NK92-44-1 cells co-incubate with the HLA positive cell line PANC-1 (E:T ration of 1:2) in the presence of NKp44-pep8 (10 or 20 μg/well), NKp44-derived pep5 was used as negative control. Note that when we apply to NK92-44-1 pep8 (without target cells), activation of IFNγ secretion is minimal and less/similar to the observed activation when applying the pep5 negative control. (C) ELISA assay of blocking NKp44–proliferating cell nuclear antigen (PCNA) interaction via NKp44-pep8. NKp44-derived pep5 was used as a negative control. No peptide represents the maximal binding capacity of NKp44 to hPCNA. (D) ELISA assay showing the specific recognition of NKp44-pep8 (5 µg/ml) to hPCNA relative to TL1A, APO-E3, HNF4, NKp44-Ig, hNKp46-Ig, hFc. (E) ProteOn array showing the binding of hPCNA at protein concentration range of 0–250 nM to bond NKp44-pep8. 0 nM (X base-line), 15.6 nM (yellow), 31.2 (purple), 62.5 nM (green), 125 nM (blue), and 250 nM (red).

NKp44–PCNA interaction = experiment: ELISA blocking of NKp44-hFc interaction with PCNA; format: binding; details: peptide 0–10 µM, NKp44-hFc 80 nM, anti-human IgG-HRP, O.D. 650 nm, negative control pep5
Experimental: To determine the ability of NKp44-pep8 to block NKp44-hFc interaction with PCNA, ELISA plates were coated overnight at 4°C with 2 µg/ml of the recombinant PCNA, blocking buffer (PBS + 2.5% skim milk) was applied for 2 h at room temperature, after which the plates were incubated with 0–10 µM of biotinylated NKp44-derived peptides or PBS 1× (100 μl/well, background control) for 2 h at room temperature and then NKp44-hFc (80 nM, 20 µl/well) was added without washing for 1 h at room temperature. NKp44-hFc binding to PCNA was detected using HRP conjugated to antihuman IgG (1 h at 1:400 dilution 100 μl/well). Following washing, TMB (100 μl/well DAKO, S1599) was added. O.D. was read at 650 nm (Thermo Electron Corporation Multiskan Spectrum). Between each step, wells were washed three times with 200 μl/well PBS 1× containing 0.05% Tween 20 (PBST).

Sequence: VTSSKPRTVAWTSRFTIWAA [pep10, NKp44-derived 20mer peptide, amino acids 67–86]
- binding to recombinant hPCNA [1]: also bound to PCNA but to a lesser extent as compared with pep8
- IFNγ secretion / NK92 cell function in presence of peptide [2]: but not pep10 could block NKp44–PCNA interaction and upregulate NK92 cell function
- inhibition of rhNKp44 binding to PCNA (NKp44–PCNA interaction): but not pep10 could block NKp44–PCNA interaction
